Results reported in PMC5417501, “Occurrence of urea-based soluble epoxide hydrolase inhibitors from the plants in the order Brassicales” (PLoS ONE, 2017).
Converted amounts (≈) assume the structure as drawn. “And” between values parts separate entries of the source, which are not always exact repeats. Equal values may be shown once. “Also recorded” adds a separate entry of the source. Read-outs that look alike come from different tables or passages of the source.

Tests used:
rat sEH [1] = biological target: T1, rat sEH (Rattus norvegicus, UniProt P80299); experiment: sEH inhibition by fluorescent assay (CMNPC assay), rat enzyme; assay type: biochemical; conditions: for IC50: CMNPC substrate, recombinant enzyme
T1 construct: made in house; host or cells: insect High Five cells (recombinant baculovirus)
T1 sequence (P80299 1-554): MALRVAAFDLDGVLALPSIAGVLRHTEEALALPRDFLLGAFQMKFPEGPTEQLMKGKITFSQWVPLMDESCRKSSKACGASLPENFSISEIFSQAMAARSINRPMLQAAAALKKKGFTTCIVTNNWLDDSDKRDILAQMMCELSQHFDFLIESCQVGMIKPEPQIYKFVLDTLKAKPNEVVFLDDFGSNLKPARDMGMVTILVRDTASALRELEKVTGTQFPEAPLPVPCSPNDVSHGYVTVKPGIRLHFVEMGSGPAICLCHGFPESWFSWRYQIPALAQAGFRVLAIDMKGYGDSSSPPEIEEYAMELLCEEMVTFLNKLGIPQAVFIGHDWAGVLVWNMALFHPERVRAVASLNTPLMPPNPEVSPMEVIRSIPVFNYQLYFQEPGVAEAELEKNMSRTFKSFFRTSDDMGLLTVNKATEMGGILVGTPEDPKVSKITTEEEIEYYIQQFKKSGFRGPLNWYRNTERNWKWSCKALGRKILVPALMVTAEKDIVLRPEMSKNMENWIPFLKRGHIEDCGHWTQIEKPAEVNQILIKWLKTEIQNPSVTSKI
Description: (§1) Recombinant sEH was produced in insect High Five cells using recombinant baculovirus expression vectors, and purified by affinity chromatography as reported previously. The enzyme appeared as a single band (0.3 μg loading) with an estimated purity of more than 95% by Coomassie Brilliant Blue staining following SDS-PAGE separation. The final recombinant sEH preparations had no esterase or glutathione S-transferase activities, which interfere with the CMNPC assay as described below.
(§2) IC50 values were determined as described previously using cyano (2-methoxynaphthalen-6-yl) methyl trans-(3-phenyl-oxyran-2-yl) methyl carbonate (CMNPC) as a fluorescent substrate. Recombinant sEH (0.96 nM) was incubated with inhibitors for 5 min in 25 mM bis-Tris/HCl buffer (pH 7.0) containing 0.1 mg/mL of BSA at 30°C prior to substrate introduction ([S] = 5 μM). Activity was measured by determining the appearance of the 6-methoxy-2-naphthaldehyde with an excitation wavelength of 330 nm and an emission wavelength of 465 nm for 10 min.

[2] = system: carrageenan-induced inflammatory pain; experiment: Nociceptive assay, carrageenan-induced inflammatory pain model, topical application; assay type: in vivo; conditions: rat, 6 mg/paw in PEG400/Vanicream, monitored 4 h, p ≤ 0.001
Description: (§3) Male Sprague-Dawley rats weighing 225–250 g were obtained from Charles River Laboratories and maintained in the UC Davis animal housing facility with ad libitum water and food on a 12 h/12 h light-dark cycle. Behavioral nociceptive testing was conducted by assessing mechanical withdrawal threshold using an electronic von Frey anesthesiometer apparatus (IITC, Woodland Hills, CA) as described previously. The analgesic effect of compound 3 was tested using the intraplantar carrageenan-induced local inflammatory pain model. Following baseline measurements, carrageenan (50 μL, 1% solution of carrageenan in ddH2O) was administered into the plantar area of one hind paw. At 4 h post administration of carrageenan, responses were measured, and immediately after these measurement, 3 (3% in PEG400/Vanicream™ (Pharmaceutical Specialties, Inc. Rochester, MN) = 3:7, 6 mg of compound/paw), the synthetic sEH inhibitor triclocarban (TCC, 3%), or the vehicle (200 μL of PEG400/Vanicream™) was administered onto the inflamed paw by topical application. The cream was thoroughly massaged across the entire hind paw surface over a 1–2 min period. Subsequently, the ability of these treatments to reduce the carrageenan-induced inflammatory pain was monitored over the course of 4 h.
Data were analyzed using SigmaPlot 11.0 for Windows (Systat Software Inc., San Jose, CA). […]

rat sEH [3] = biological target: T1, rat sEH; set-up: method as in PMID 21381656; conditions: value marked with footnote e; cited from earlier work
[4] = Pharmacokinetics after oral gavage (cassette dosing); assay type: in vivo; conditions: mice; for oral availability, comparison: gavage, compound 3 and AEPU 10 mg/kg, TPPU 0.3 mg/kg; for blood level of demethoxy metabolite after oral compound 3: compound 3 10 mg/kg oral, LOQ < 9.8 nM in blood
Description: (§4) Pharmacokinetic profiles of the inhibitors were determined by following the procedure described previously in literature with some modifications. Male Swiss Webster mice (7 weeks old, 24–30 g) were purchased from Charles River Laboratories. Inhibitors were dissolved in polyethylene glycol (average molecular weight: 300) to give a clear solution for oral administration. […] Blood (10 μL) was collected from the tail vein using a pipet tip rinsed with EDTA. The blood samples were prepared according to the methods detailed previously, and blood samples were analyzed by LC-MS/MS.

human sEH = biological target: T2, human sEH (Homo sapiens, UniProt P34913); experiment: sEH inhibition by fluorescent assay (CMNPC assay), human enzyme; assay type: biochemical
T2 construct: made in house; host or cells: insect High Five cells (recombinant baculovirus)
T2 sequence (P34913 1-555): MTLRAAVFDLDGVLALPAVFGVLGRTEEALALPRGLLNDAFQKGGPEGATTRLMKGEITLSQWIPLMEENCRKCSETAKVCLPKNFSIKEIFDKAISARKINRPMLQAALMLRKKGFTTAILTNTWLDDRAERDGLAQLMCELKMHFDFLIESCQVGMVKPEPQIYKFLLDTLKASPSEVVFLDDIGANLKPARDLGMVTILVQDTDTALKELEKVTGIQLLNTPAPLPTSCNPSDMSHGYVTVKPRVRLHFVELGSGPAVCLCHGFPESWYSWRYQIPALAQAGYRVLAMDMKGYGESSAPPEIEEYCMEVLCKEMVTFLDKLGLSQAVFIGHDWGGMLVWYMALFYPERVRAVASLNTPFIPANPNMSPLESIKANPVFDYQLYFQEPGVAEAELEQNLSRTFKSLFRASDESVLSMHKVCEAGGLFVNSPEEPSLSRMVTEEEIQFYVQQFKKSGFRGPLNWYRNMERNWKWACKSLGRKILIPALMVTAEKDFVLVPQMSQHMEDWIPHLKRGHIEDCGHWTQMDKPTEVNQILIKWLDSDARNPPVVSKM
Description: as §1, §2

Solubility = assay type: physicochemical
[5] = Blood concentration during the pain assay after dermal treatment; assay type: in vivo; conditions: rat; for Concentration of demethoxy metabolite: after dermal treatment of compound 3 (6 mg/paw)
Description: as §3, §4

[6] = system: carrageenan-induced inflammatory pain; experiment: Carrageenan-induced inflammatory pain model, intraplantar administration; assay type: in vivo; conditions: rat, 10 µg/paw, p<0.05 vs. vehicle
Description: S8 Fig. Intraplantar administration of compound 3 effectively reduces carrageenan-induced inflammatory pain in rat. Administration of the inflammatory agent carrageenan (CAR) induces a stable hyperalgesic response for the duration of the experiment. Treatment with 3 (▲, 10 µg/paw, intraplantar), morphine (●, 10 µg/paw, intraplantar) or the potent synthetic sEH inhibitor (1-(1-(Cyclopropanecarbonyl) piperidin-4-yl)-3-(4- […]
pain levels (Kruskal-Wallis One Way ANOVA on Ranks, p≤0.001, Tukey’s post hoc test (compound 3 vs. vehicle, morphine vs. vehicle, TPCU vs. vehicle, p<0.05). Mean ± SE (n=6) of mechanical withdrawal threshold (% of naïve baseline) are shown. Vehicle (○), morphine (●), and TPCU (△) treatment data are from Rose et al., (2010).
(1 picture or pasted object on this page, not shown here)

[7] = Overnight incubation of thiourea in water at room temperature without papaya seed; assay type: physicochemical; conditions: 10 μM in water
[8] = system: carrageenan-induced inflammatory pain; set-up: method as in Rose et al., (2010); conditions: rat, intraplantar, morphine 10 µg/paw, TPCU 10 ng/paw; ref Rose et al., (2010); cited from earlier work
[9] = value marked with footnote c, text of footnote not shown; cited from earlier work
[10] = CMNPC substrate, recombinant enzyme, read-out: Human sEH IC50
[11] = S2 Table, unit inferred, read-out: hsEH IC50

Structure (SMILES): O=C(NCc1ccccc1)NCc1ccccc1 [Compound 1, 1,3-Dibenzylurea]
- IC50 (rat sEH [1]): 385 nM

Structure (SMILES): O=C(Nc1ccc(Cl)cc1)Nc1ccc(Cl)c(Cl)c1 [TCC, triclocarban, reference compound]
- more potent than compound 3 on rat sEH (rat sEH [1]): approximately 6 fold
- carrageenan induced inflammatory pain (mechanical withdrawal threshold) [2]: significantly reduced carrageenan induced inflammatory pain; also recorded: significantly reduced pain levels
- IC50 (rat sEH [3]): 27 nM

Structure (SMILES): CCC(=O)N1CCC(NC(=O)Nc2ccc(OC(F)(F)F)cc2)CC1 [TPPU, 1-trifluoromethoxyphenyl-3-(1-propionylpiperidin-4-yl) urea, reference compound]
- oral availability, comparison [4]: much higher bioavailability than compound 3

Structure (SMILES): COc1cccc(CNC(=O)NCc2cccc(OC)c2)c1 [Compound 3, 1,3-Bis (3-methoxybenzyl) urea]
- IC50 (human sEH; [10]): 222 nM and ~200 nM
- less potent than MMU (human sEH; human sEH): approximately 2 fold
- IC50 (rat sEH [1]): 155 nM
- solubility higher than MMU (Solubility): approximately 10 fold
- carrageenan induced inflammatory pain (mechanical withdrawal threshold) [2]: significantly reduced carrageenan induced inflammatory pain; also recorded: significantly reduced pain levels
- concentration at 4 h ([5]; male, Sprague-Dawley, whole blood, topical, dermal 6 mg/paw, after 4 hours): > 3000 nM
- blood concentration at peak ([5]; dermal 6 mg/paw, at 30 min): higher than 40 μM
- permeability through skin ([5]; dermal 6 mg/paw, concluded from blood concentration): high permeability through skin
- absorption following oral administration ([4]; 10 mg/kg by gavage in PEG300): rapidly absorbed
- oral availability, comparison [4]: higher than that of AEPU
- portion of compound 3 metabolized into compound 6 ([4]; oral 10 mg/kg, based on area under the curve values): approximately 66%
- carrageenan-induced inflammatory pain (mechanical withdrawal threshold) [6]: significantly reduced

Structure (SMILES): COc1cccc(CNC(=O)NCc2ccccc2)c1 [Compound 2, 1-Benzyl-3-(3-methoxybenzyl) urea]
- lower potency on human sEH than compound 3 (human sEH): approximately 2 fold
- IC50 (human sEH; [10]): 534 nM
- IC50 (rat sEH [1]): 308 nM

Structure (SMILES): S=C(NCc1ccccc1)NCc1ccccc1 [1,3-dibenzylthiourea]
- converted into compound 1 [7]: Approximately 10%

Structure (SMILES): COc1cccc(CNC(=O)NCc2cccc(O)c2)c1 [Compound 6, 1-(3-Hydroxybenzyl)-3-(3-methoxybenzyl) urea]
- IC50 (human sEH; read-out: human sEH IC50): 1300 nM
- IC50 (rat sEH [1]): 1300 nM
- Concentration of demethoxy metabolite [5]: below 200 nM
- blood level of demethoxy metabolite after oral compound 3 [4]: detected at similar concentrations to compound 3

Structure (SMILES): O=C(NCc1cccc(O)c1)NCc1cccc(O)c1 [Compound 7, 1,3-Bis(3-hydroxybenzyl)urea]
- IC50 (human sEH; [11]): 2700 nM
- IC50 (rat sEH [1]): 9600 nM
- Concentration of demethoxy metabolite [5]: below 200 nM
- blood level of demethoxy metabolite after oral compound 3 [4]: not detected

Structure (SMILES): O=S(=O)(O)ON=C(CCc1ccccc1)SC1OC(CO)C(O)C(O)C1O (stereo not shown) [Phenethyl glucosinolate, reference compound]
- IC50 (human sEH; [10]): > 10000 nM
- IC50 (rat sEH [1]): > 10000 nM

Structure (SMILES): COc1ccc(CNC(=O)NCc2ccccc2)cc1 [BMU, reference compound]
- IC50 (rat sEH [1]): 182 nM

Structure (SMILES): O=C(NCCc1ccccc1)NCCc1ccc(O)cc1 [Compound 10, 1-(4-Hydroxyphenethyl)-3-phenethylurea]
- sEH inhibitory potency in words (human sEH): slightly higher inhibitory potency on sEH than the parent
- IC50 (human sEH; [10]): 134 nM
- IC50 (human sEH; [11]): 71.6 nM
- IC50 (rat sEH [1]): 129 nM

Structure (SMILES): CN1CC[C@]23c4c5ccc(O)c4O[C@H]2[C@@H](O)C=C[C@H]3[C@H]1C5 [morphine]
- carrageenan-induced inflammatory pain (mechanical withdrawal threshold) [8]: significantly reduced

Structure (SMILES): O=C(NCCc1ccccc1)NCCc1ccccc1 [Compound 8, 1,3-Diphenethylurea]
- sEH inhibitory potency in words (human sEH): moderate sEH inhibitory potency
- IC50 (human sEH; [11]): 233 nM
- IC50 (rat sEH [1]): 71 nM
- solubility (Solubility): 33 ± 11 µM (≈ 8.86 µg/mL)

Structure (SMILES): S=C=NCCc1ccccc1 [Phenethyl isothiocyanate, reference compound]
- IC50 (human sEH; [10]): > 10000 nM
- IC50 (rat sEH [1]): > 10000 nM

Structure (SMILES): O=C(Nc1ccc(OC(F)(F)F)cc1)NC1CCN(C(=O)C2CC2)CC1 [TPCU, 1-(1-(Cyclopropanecarbonyl)piperidin-4-yl)-3-(4-(trifluoromethoxy)phenyl) urea]
- carrageenan-induced inflammatory pain (mechanical withdrawal threshold) [8]: significantly reduced

Structure (SMILES): S=C(NCCc1ccccc1)NCCc1ccccc1 [Compound 9, 1,3-Diphenethylthiourea]
- IC50 (human sEH; [10]): 2400 nM
- IC50 (human sEH; [11]): 134 nM
- IC50 (rat sEH [1]): 3300 nM

Structure (SMILES): COc1ccc(CNC(=O)NCc2ccc(OC)cc2)cc1 [MMU, reference compound]
- IC50 (rat sEH [1]): 218 nM
- solubility [9]: 11 ± 2 µM (≈ 3.3 µg/mL)
